The target of the assay is USP7 (Homo sapiens (Human), UniProt Q93009). Nature of the assay: USP7 fluorescence polarisation (FP) assay with ubiquitin-Lys-TAMRA substrate. Format: biochemical. The conditions noted are these: biochemical inhibition.
The mark [1] stands for this setting: read-out: USP7 IC50 activity (Table 3a, classes).
Setting [2] is: unit not given in Table 3b (Table 1 and key of Table 3a use μM), read-out: USP7 IC50 activity (Table 3b).

Where two headings read alike, the source gives them in different places. Some results are limits rather than exact numbers.

USP7, sequence (Q93009 whole entry): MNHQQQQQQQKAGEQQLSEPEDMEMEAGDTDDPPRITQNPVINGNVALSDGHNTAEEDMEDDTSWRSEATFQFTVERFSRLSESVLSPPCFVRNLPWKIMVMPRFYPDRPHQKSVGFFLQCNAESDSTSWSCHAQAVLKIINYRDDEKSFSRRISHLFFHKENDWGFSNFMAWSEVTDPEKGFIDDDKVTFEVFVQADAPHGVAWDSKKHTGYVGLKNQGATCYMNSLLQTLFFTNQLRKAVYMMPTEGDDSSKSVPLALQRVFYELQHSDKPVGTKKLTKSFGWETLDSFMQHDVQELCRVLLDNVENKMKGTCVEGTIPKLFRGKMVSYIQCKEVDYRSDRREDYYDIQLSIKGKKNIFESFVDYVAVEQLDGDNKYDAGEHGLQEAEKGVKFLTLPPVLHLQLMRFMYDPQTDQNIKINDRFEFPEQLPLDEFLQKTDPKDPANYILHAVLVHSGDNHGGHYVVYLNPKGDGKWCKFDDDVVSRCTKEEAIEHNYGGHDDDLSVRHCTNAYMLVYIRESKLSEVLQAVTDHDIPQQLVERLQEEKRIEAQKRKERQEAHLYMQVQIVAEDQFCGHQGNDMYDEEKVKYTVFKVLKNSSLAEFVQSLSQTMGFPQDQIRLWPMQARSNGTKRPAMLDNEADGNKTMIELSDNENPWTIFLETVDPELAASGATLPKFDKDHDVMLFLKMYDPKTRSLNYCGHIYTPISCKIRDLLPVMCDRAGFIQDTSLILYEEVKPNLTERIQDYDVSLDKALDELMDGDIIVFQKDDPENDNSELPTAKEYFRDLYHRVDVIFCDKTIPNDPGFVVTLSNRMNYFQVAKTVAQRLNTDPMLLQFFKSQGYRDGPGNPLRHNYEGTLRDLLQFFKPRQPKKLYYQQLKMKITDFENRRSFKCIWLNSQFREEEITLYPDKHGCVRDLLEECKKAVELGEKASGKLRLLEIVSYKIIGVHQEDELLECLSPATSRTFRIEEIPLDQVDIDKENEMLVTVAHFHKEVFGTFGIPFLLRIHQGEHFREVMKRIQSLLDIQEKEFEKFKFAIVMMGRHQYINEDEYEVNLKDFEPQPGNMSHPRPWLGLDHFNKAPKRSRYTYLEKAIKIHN

As for `Cc1cc(-n2c(Cl)cc3c(=O)n(CC4(O)CCN(C(=O)c5ccc(F)cc5)CC4)cnc32)ccc1[C@H]1CO[C@H](C)CN1` [Example 47, 6-Chloro-3-((1-(4-fluorobenzoyl)-4-hydroxypiperidin-4-yl)methyl)-7-(3-methyl-4-((3S,6R)-6-methylmorpholin-3-yl)phenyl)-3,7-dihydro-4H-pyrrolo[2,3-d]pyrimidin-4-one], the IC50 under setting [1] was < 0.1 µM and the 50% inhibitory concentration (IC50) under setting [2] was 0.091 µM.

With `O=C(N1CCC(O)(Cn2cnc3c(cc(Cl)n3-c3ccc([C@@H]4NC[C@@H]5CC[C@H]4O5)cc3)c2=O)CC1)C1(C2CC2)CC1` [Example 49, 7-(4-((1R,2S,5S)-8-Oxa-3-azabicyclo[3.2.1]octan-2-yl)phenyl)-3-((1-([1,1′-bi(cyclopropane)]-1-carbonyl)-4-hydroxypiperidin-4-yl)methyl)-6-chloro-3,7-dihydro-4H-pyrrolo[2,3-d]pyrimidin-4-one], the IC50 under setting [1] lay within 0.1 to 0.25 µM and the IC50 under setting [2] turned out to be 0.223 µM.

For `Cc1cc(-n2c(Cl)cc3c(=O)n(CC4(O)CCN(C(=O)c5ccc(Cl)cc5F)CC4)cnc32)ccc1[C@H]1CO[C@H](C)CN1` [Example 50, 6-Chloro-3-((1-(4-chloro-2-fluorobenzoyl)-4-hydroxypiperidin-4-yl)methyl)-7-(3-methyl-4-((3S,6R)-6-methylmorpholin-3-yl)phenyl)-3,7-dihydro-4H-pyrrolo[2,3-d]pyrimidin-4-one], the IC50 was 0.1 to 0.25 µM under setting [1] and 0.164 µM under setting [2].

For `Cc1cc(-n2c(Cl)cc3c(=O)n(CC4(O)CCN(C(=O)c5cccc(Cl)c5)CC4)cnc32)ccc1[C@H]1CO[C@H](C)CN1` [Example 51, 6-Chloro-3-((1-(3-chlorobenzoyl)-4-hydroxypiperidin-4-yl)methyl)-7-(3-methyl-4-((3S,6R)-6-methylmorpholin-3-yl)phenyl)-3,7-dihydro-4H-pyrrolo[2,3-d]pyrimidin-4-one], the IC50 runs as follows: under setting [1], < 0.1 µM; under setting [2], 0.258 µM.

As to `Cc1cc(-n2c(Cl)cc3c(=O)n(CC4(O)CCN(C(=O)c5ccccc5Cl)CC4)cnc32)ccc1[C@H]1CO[C@H](C)CN1` [Example 52, 6-Chloro-3-((1-(2-chlorobenzoyl)-4-hydroxypiperidin-4-yl)methyl)-7-(3-methyl-4-((3S,6R)-6-methylmorpholin-3-yl)phenyl)-3,7-dihydro-4H-pyrrolo[2,3-d]pyrimidin-4-one], the half-inhibitory concentration (IC50) reads like this: under setting [1], 0.1 to 0.25 µM; under setting [2], 0.179 µM.

For the compound `O=C(c1ccc(Cl)cc1)N1CCC(O)(Cn2cnc3c(cc(Cl)n3-c3ccc(C4COC5CCCCC5N4)cc3)c2=O)CC1` (stereo not shown) [Example 53, 6-Chloro-3-((1-(4-chlorobenzoyl)-4-hydroxypiperidin-4-yl)methyl)-7-(4-(octahydro-2H-benzo[b][1,4]oxazin-3-yl)phenyl)-3,7-dihydro-4H-pyrrolo[2,3-d]pyrimidin-4-one], the IC50 is, setting by setting: under setting [1], 0.25 to 2 µM; under setting [2], 0.264 µM.

As for `O=C(c1ccc(Cl)cc1)N1CCC(O)(Cn2cnc3c(cc(Cl)n3-c3ccc(C4COC5CCCC5N4)cc3)c2=O)CC1` (stereo not shown) [Example 54, 6-Chloro-3-((1-(4-chlorobenzoyl)-4-hydroxypiperidin-4-yl)methyl)-7-(4-(octahydrocyclopenta[b][1,4]oxazin-3-yl)phenyl)-3,7-dihydro-4H-pyrrolo[2,3-d]pyrimidin-4-one], the IC50 was 0.1 to 0.25 µM under setting [1] and 0.151 µM under setting [2].

Take `Cc1ccc(C(=O)N2CCC(O)(Cn3cnc4c(cc(Cl)n4-c4ccc([C@H]5CO[C@H](C)CN5)c(C)c4)c3=O)CC2)cc1` [Example 55]: the IC50 under setting [1] fell in the range of 0.1 to 0.25 µM.

`Cc1cc(-n2c(Cl)cc3c(=O)n(CC4(O)CCN(C(=O)c5ccc(C(F)(F)F)cc5)CC4)cnc32)ccc1[C@H]1CO[C@H](C)CN1` [Example 56, 6-Chloro-3-((4-hydroxy-1-(4-(trifluoromethyl)benzol)piperidin-4-yl)methyl)-7-(3-methyl-4-((3S,6R)-6-methylmorpholin-3-yl)phenyl)-3,7-dihydro-4H-pyrrolo[2,3-d]pyrimidin-4-one]: the IC50 by setting is: under setting [1], 0.1 to 0.25 µM; under setting [2], 0.113 µM.

With `Cc1ccc(C(=O)N2CCC(O)(Cn3cnc4c(cc(Cl)n4-c4ccc([C@H]5CO[C@H](C)CN5)c(C)c4)c3=O)CC2)c(Cl)c1` [Example 57, 6-Chloro-3-((1-(2-chloro-4-methylbenzoyl)-4-hydroxypiperidin-4-yl)methyl)-7-(3-methyl-4-((3S,6R)-6-methylmorpholin-3-yl)phenyl)-3,7-dihydro-4H-pyrrolo[2,3-d]pyrimidin-4-one], the IC50 is < 0.1 µM under setting [1] and 0.084 µM under setting [2].

For the compound `Cc1ccc(C(=O)N2CCC(O)(Cn3cnc4c(cc(Cl)n4-c4ccc([C@H]5CO[C@H](C)CN5)c(C)c4)c3=O)CC2)c(C)c1` [Example 58, 6-Chloro-3-((1-(2,4-dimethylbenzoyl)-4-hydroxypiperidin-4-yl)methyl)-7-(3-methyl-4-((3S,6R)-6-methylmorpholin-3-yl)phenyl)-3,7-dihydro-4H-pyrrolo[2,3-d]pyrimidin-4-one], the IC50 is 0.25 to 2 µM under setting [1] and 0.414 µM under setting [2].

`Cc1ccc(C(=O)N2CCC(O)(Cn3cnc4c(cc(Cl)n4-c4ccc([C@@H]5CO[C@@H](C)CN5)cc4)c3=O)CC2)c(C)c1` [Example 59, 6-Chloro-3-((1-(2,4-dimethylbenzoyl)-4-hydroxypiperidin-4-yl)methyl)-7-(4-((3R,6S)-6-methylmorpholin-3-yl)phenyl)-3,7-dihydro-4H-pyrrolo[2,3-d]pyrimidin-4-one]: the IC50 under setting [1] lay within 0.25 to 2 µM and the IC50 under setting [2] was found to be 0.545 µM.

As to `O=C(c1ccc(Cl)cc1)N1CCC(O)(Cn2cnc3c(cc(Cl)n3-c3ccc(C4COC5CC5N4)cc3)c2=O)CC1` (stereo not shown) [Example 60, 7-(4-(2-Oxa-5-azabicyclo[4.1.0]heptan-4-yl)phenyl)-6-chloro-3-((1-(4-chlorobenzoyl)-4-hydroxypiperidin-4-yl)methyl)-3,7-dihydro-4H-pyrrolo[2,3-d]pyrimidin-4-one], the IC50 under setting [1] was 0.25 to 2 µM and the IC50 under setting [2] is 0.313 µM.

Consider `C[C@H]1CN[C@H](c2ccc(-n3c(Cl)cc4c(=O)n(CC5(O)CCN(C(=O)/C=C/c6ccccc6)CC5)cnc43)cc2)CO1` [Example 63, 6-Chloro-3-((1-cinnamoyl-4-hydroxypiperidin-4-yl)methyl)-7-(4-((3R,6S)-6-methylmorpholin-3-yl)phenyl)-3,7-dihydro-4H-pyrrolo[2,3-d]pyrimidin-4-one], for which the IC50 is 0.1 to 0.25 µM under setting [1] and 0.221 µM under setting [2].

Take `C[C@H]1CN[C@H](c2ccc(-n3c(Cl)cc4c(=O)n(CC5(O)CCN(C(=O)c6ccc(C(F)(F)F)cc6)CC5)cnc43)cc2)CO1` [Example 65, 6-Chloro-3-((4-hydroxy-1-(4-(trifluoromethyl)benzoyl)Piperidin-4-yl)methyl)-7-(4-((3R,6S)-6-methylmorpholin-3-yl)phenyl)-3,7-dihydro-4H-pyrrolo[2,3-d]pyrimidin-4-one]: the IC50 is 0.1 to 0.25 µM under setting [1] and 0.156 µM under setting [2].

Take `CC1(C(=O)N2CCC(O)(Cn3cnc4c(cc(Cl)n4-c4ccc(C5COCCN5)c(F)c4)c3=O)CC2)CC1` (stereo not shown) [Example 72, 6-Chloro-7-(3-fluoro-4-(morpholin-3-yl)phenyl)-3-((4-hydroxy-1-(1-methylcyclopropane-1-carbonyl)piperidin-4-yl)methyl)-3,7-dihydro-4H-pyrrolo[2,3-d]pyrimidin-4-one]: the IC50 runs as follows: under setting [1], 0.1 to 0.25 µM; under setting [2], 0.211 µM.

Take `CN1CCOCC1c1ccc(-n2c(Cl)cc3c(=O)n(CC4(O)CCN(C(=O)C5(C)CC5)CC4)cnc32)cc1` (stereo not shown) [Example 75, 6-Chloro-3-((4-hydroxy-1-(1-methylcyclopropane-1-carbonyl)piperidin-4-yl)methyl)-7-(4-(4-methylmorpholin-3-yl)phenyl)-3,7-dihydro-4H-pyrrolo[2,3-d]pyrimidin-4-one]: the IC50 reads like this: under setting [1], 0.25 to 2 µM; under setting [2], 2.09 µM.

With `CC1(C(=O)N2CCC(O)(Cn3cnc4c(cc(Cl)n4-c4ccc([C@@H]5COCCN5)cc4)c3=O)CC2)CC1C(F)(F)F` (stereo partly drawn) [Example 84, 6-Chloro-3-((4-hydroxy-1-(1-methyl-2-(trifluoromethyl)cyclopropane-1-carbonyl)piperidin-4-yl)methyl)-7-(4-((R)-morpholin-3-yl)phenyl)-3,7-dihydro-4H-pyrrolo[2,3-d]pyrimidin-4-one], the IC50 was < 0.1 µM under setting [1] and 0.045 µM under setting [2].

Consider `CC1(C(=O)N2CCC(O)(Cn3cnc4c(cc(Cl)n4-c4ccc(C5CNCCO5)cc4)c3=O)CC2)CC1` (stereo not shown) [Example 88, 6-Chloro-3-((4-hydroxy-1-(1-methylcyclopropane-1-carbonyl)piperidin-4-yl)methyl)-7-(4-(morpholin-2-yl)phenyl)-3,7-dihydro-4H-pyrrolo[2,3-d]pyrimidin-4-one], for which the IC50 is, setting by setting: under setting [1], 0.1 to 0.25 µM; under setting [2], 0.158 µM.

With `Cc1cc(Cl)ccc1C(=O)N1CCC(O)(Cn2cnc3c(cc(Cl)n3-c3ccc([C@H]4CO[C@H](C)CN4)c(C)c3)c2=O)CC1` [Example 89, 6-Chloro-3-((1-(4-chloro-2-methylbenzoyl)-4-hydroxypiperidin-4-yl)methyl)-7-(3-methyl-4-((3S,6R)-6-methylmorpholin-3-yl)phenyl)-3,7-dihydro-4H-pyrrolo[2,3-d]pyrimidin-4-one], the IC50 reads like this: under setting [1], 0.1 to 0.25 µM; under setting [2], 0.204 µM.

Regarding `Cc1cc(Cl)ccc1C(=O)N1CCC(O)(Cn2cnc3c(cc(Cl)n3-c3ccc([C@@H]4CO[C@@H](C)CN4)cc3)c2=O)CC1` [Example 90, 6-Chloro-3-((1-(4-chloro-2-methylbenzoyl)-4-hydroxypiperidin-4-yl)methyl)-7-(4-((3R,6S)-6-methylmorpholin-3-yl)phenyl)-3,7-dihydro-4H-pyrrolo[2,3-d]pyrimidin-4-one], the IC50 is 0.25 to 2 µM under setting [1] and 0.293 µM under setting [2].

On to `C[C@H]1CN[C@H](c2ccc(-n3c(Cl)cc4c(=O)n(CC5(O)CCN(C(=O)c6ccc(C(F)F)cc6)CC5)cnc43)cc2)CO1` [Example 91, 6-Chloro-3-((1-(4-(difluoromethyl)benzoyl)-4-hydroxypiperidin-4-yl)methyl)-7-(4-((3R,6S)-6-methylmorpholin-3-yl)phenyl)-3,7-dihydro-4H-pyrrolo[2,3-d]pyrimidin-4-one], for which the half-maximal inhibitory concentration (IC50) is, setting by setting: under setting [1], 0.1 to 0.25 µM; under setting [2], 0.167 µM.

A word on the IC50: it is the point on the concentration scale where inhibition reaches its midpoint.

The record behind these values is patent US20250122223A1, “HETEROCYCLIC COMPOUNDS AS UBIQUITIN SPECIFIC PROTEASE 7 INHIBITORS” (ALMAC DISCOVERY LIMITED, priority 2022, published 2025).
